Test results reported in ChEMBL document CHEMBL1121748, “Antimycotic imidazoles. 5. Synthesis and antimycotic properties of 1-[[2-aryl-4-(arylalkyl)-1,3-dioxolan-2-yl]methyl]-1H-imidazoles” (1981).

Key:
Candida tropicalis = experiment: Antifungal activity against Candida tropicalis; type: functional
Microsporum canis = experiment: Antifungal activity against Microsporum canis; type: functional
Saprolegnia = experiment: Antifungal activity against Saprolegnia species; type: functional
Cryptococcus neoformans = experiment: Antifungal activity against Cryptococcus neoformans; type: functional
Phialophora verrucosa = experiment: Antifungal activity against Phialophora verrucosa; type: functional
[1] = tested on: Staphylococcus haemolyticus; experiment: Antibacterial against Staphylococcus hemolyticus; type: functional
Trichophyton benhamiae = experiment: Antifungal activity against Trichophyton mentagrophytes; type: functional, trychophyton mentagrophytes
Trichophyton rubrum = experiment: Antifungal activity against Trichophyton rubrum; type: functional
Mucor = experiment: Antifungal activity against Mucor species; type: functional
Sporothrix schenckii = experiment: Antifungal activity against Sporothrix schenck ii; type: functional
[2] = tested on: Erysipelothrix rhusiopathiae; experiment: Antibacterial activity against Erysipelothrix insidiosa; type: functional
Candida albicans = experiment: Antifungal activity against Candida albicans; type: functional
Streptococcus pyogenes = experiment: Antibacterial activity against Streptococcus pyogenes; type: functional
Aspergillus fumigatus = experiment: Antifungal activity against Aspergillus fumigatus; type: functional
[3] = Ratio of animals cured to that of animals infected, tested in vivo for antifungal activity against cutaneous candidosis in guinea pig; 0/2; type: functional; further: test concentration or dose not given here
[4] = Ratio of animals cured to that of animals infected, tested in vivo for antifungal activity against vaginal candidosis in rat; 0/2; further: test concentration or dose not given here

| SMILES | Inhibition (Candida tropicalis) [µg/mL] | Inhibition (Microsporum canis) [µg/mL] | Inhibition (Saprolegnia) [µg/mL] | Inhibition (Cryptococcus neoformans) [µg/mL] | Inhibition (Phialophora verrucosa) [µg/mL] | Inhibition [1] [µg/mL] | Inhibition (Trichophyton benhamiae) [µg/mL] | Inhibition (Trichophyton rubrum) [µg/mL] | Inhibition (Mucor) [µg/mL] | Inhibition (Sporothrix schenckii) [µg/mL] | Inhibition [2] [µg/mL] | Inhibition (Candida albicans) [µg/mL] | Inhibition (Streptococcus pyogenes) [µg/mL] | Inhibition (Aspergillus fumigatus) [µg/mL] | Ratio [3] | Ratio [4] |
| --- | --- | --- | --- | --- | --- | --- | --- | --- | --- | --- | --- | --- | --- | --- | --- | --- |
| Clc1ccc(C2(Cn3ccnc3)OCC(c3ccccc3Cl)O2)c(Cl)c1 (centres undefined) | 100 | 10 | 100 | <1 | 100 | 1 | <1 | <1 | 100 | 10 | <1 | 100 | <1 | 100 | – | – |
| Cc1ccc(C2(Cn3ccnc3)OCC(c3ccc(Cl)cc3)O2)cc1 (centres undefined) | 100 | <1 | 100 | <1 | 100 | 10 | <1 | <1 | 10 | 10 | <1 | >100 | <1 | <1 | 0 | – |
| Cc1ccc(C2(Cn3ccnc3)OCC(c3ccc(Cl)cc3Cl)O2)cc1 (centres undefined) | >100 | 10 | 100 | 10 | 100 | 1 | <1 | <1 | 100 | 10 | <1 | >100 | <1 | 100 | 0 | – |
| Clc1cccc(C2(Cn3ccnc3)OCC(c3ccc(Cl)cc3Cl)O2)c1 (centres undefined) | 100 | 100 | 100 | 100 | >100 | 100 | 10 | <1 | 100 | 10 | 10 | 100 | <1 | 100 | 0 | 0 |
| Clc1ccc(C2COC(Cn3ccnc3)(c3ccc(Br)cc3)O2)cc1 (centres undefined) | 100 | <1 | 100 | 100 | 100 | 100 | <1 | <1 | >100 | 10 | 1 | >100 | 1 | 10 | 0 | 0 |
| Clc1ccc(C2COC(Cn3ccnc3)(c3ccccc3Cl)O2)c(Cl)c1 (centres undefined) | >100 | <1 | 10 | <1 | 100 | 10 | <1 | <1 | >100 | <1 | 1 | >100 | <1 | <1 | – | 0 |
| Clc1ccc(C2COC(Cn3ccnc3)(c3ccccc3Cl)O2)cc1 (centres undefined) | 100 | <1 | 10 | 100 | 100 | 100 | <1 | <1 | 100 | 10 | <1 | 100 | <1 | <1 | – | – |
| COc1ccc(C2(Cn3ccnc3)OCC(c3ccc(Cl)cc3)O2)cc1 (centres undefined) | >100 | <1 | 100 | >100 | 100 | 100 | <1 | 10 | 100 | 10 | 10 | >100 | 10 | <1 | 0 | – |
| Clc1ccc(C2(Cn3ccnc3)OCC(c3ccccc3)O2)cc1 (centres undefined) | >100 | 10 | 100 | 10 | 100 | 10 | <1 | <1 | 100 | 10 | 1 | 100 | <1 | 10 | – | – |
| Cc1ccc(C2(Cn3ccnc3)OCC(c3ccc(Br)cc3)O2)cc1 (centres undefined) | >100 | <1 | 10 | >100 | >100 | 10 | <1 | <1 | >100 | >100 | <1 | >100 | <1 | <1 | 0 | 0 |
| Clc1ccccc1C1(Cn2ccnc2)OCC(c2ccc(Br)cc2)O1 (centres undefined) | 10 | <1 | 10 | <1 | 10 | 10 | <1 | <1 | 10 | 10 | 10 | 100 | 10 | <1 | – | – |
| Brc1ccc(C2COC(Cn3ccnc3)(c3ccccc3)O2)cc1 (centres undefined) | >100 | <1 | 100 | 10 | 100 | >100 | <1 | <1 | 100 | 10 | 1 | 100 | <1 | 10 | – | – |
| Brc1ccc(C2(Cn3ccnc3)OCC(c3ccccc3)O2)cc1 (centres undefined) | >100 | <1 | 100 | 10 | 100 | 100 | <1 | <1 | 100 | 100 | 10 | 100 | <1 | 100 | 0 | 0 |
| Clc1ccc(C2COC(Cn3ccnc3)(c3ccc(Br)cc3)O2)c(Cl)c1 (centres undefined) | >100 | 10 | >100 | >100 | >100 | 100 | 10 | <1 | 100 | 100 | 1 | >100 | 1 | >100 | 0 | – |
| Clc1ccc(C2(Cn3ccnc3)OCC(c3ccc(Cl)cc3Cl)O2)cc1 (centres undefined) | >100 | 10 | 100 | 10 | 100 | 10 | <1 | <1 | 100 | 10 | 1 | 100 | <1 | 100 | – | 0 |
| Clc1ccc(C2(Cn3ccnc3)OCC(Cc3ccc(Br)cc3)O2)c(Cl)c1 (centres undefined) | >100 | <1 | 100 | <1 | 100 | 10 | <1 | <1 | <1 | 10 | <1 | 10 | <1 | 10 | – | 0 |
